Patent publication US20050054585A1, “Agent controlling the production of osteoclast formation regulator and method of screening substance capable of controlling the production of osteoclast formation regulator” (priority 2001, published 2005)

Columns and labels:
[1] = system: OPG production in FHs 74 Int cells, ATCC CCL 241; test: Production of OPG in FHs 74 Int cell culture supernatant, Western Blotting; type: cell-based, human; conditions: 2-day culture with saccharide (1 mg/ml; α,α-trehalose 1, 0.2, 0.04 mg/ml), control without saccharide = 100
Description: FHs 74 Int cells, ATCC CCL 241, were inoculated to 96-well plates, with D-MEM medium prepared by adding fetal calf serum, commercialized by GIBCO Bethesda Research Laboratories, Bethesda, Md., USA, to the serum-free culture medium shown in Table 1 below to give a final concentration of 10% (v/v), a final cell density of 1.2×10^4 cells/well, and a final volume of 200 μl; and incubated at 37° C. for 48 hours in a 5% CO2 (V/V) incubator. After completion of the culture, the resultant cells were washed thrice (200 μl×3) with the serum-free D-MEM medium in Table 1. […] Two hundred microliters of each of the saccharide solutions of Nos.1 to 7 were placed in each well of the 96-well plates with the cells, and the cells were incubated at 37 C for two days in a 5% CO2 (v/v) incubator. The culture supernatant in each well was sampled and assayed for the production level of OPG by the Western Blotting method as indicated below using a recombinant human OPG commercialized by R & D Systems Inc., MN, USA. In parallel, a cell culture system with no saccharide, as a control group, was provided and cultured, and the supernatant of the cell culture was sampled on day 2 after the initiation of the cell culture and assayed for the production level of OPG similarly as in the test group.
Fifteen microliters of any of the cell culture supernatants of the test solutions and the control solution, and five microliters of dithiothreitol (DTT) solution for cell treatment were mixed and heated at 99° C. for five minutes. Each of the resulting solutions with heat treatment was developed on SDS-polyacrylamide gel electrophoresis (SDS-PAGE) using multi-gel 4/20 commercialized by Daiichi Pure Chemicals Co., Ltd., Tokyo, Japan; and the gels were transferred to PVDF membranes commercialized by Nihon Millipore Corporation, Tokyo, Japan. The resulting PVDF membranes were blocked with a solution of “BLOCK ACE™”, commercialized by Dainippon Pharmaceutical Co., Ltd., Tokyo, Japan, and contacted with an anti-human OPG antibody as a primary antibody, commercialized by R & D Systems, MN, USA, and an HRP anti-goat IgG antibody, as a secondary antibody, commercialized by Sigma Chemical Co., MO, USA; followed by detecting proteins reacted with these antibodies in accordance with the method described in Experimental Medicine, special edition, titled Handbook for novel recombinant technology, pp. 222-226 (1999). The coloration was effected by using ECL reagent, commercialized by Amersham Pharmacia Biotechnology, IL, USA; exposing “[sequence] ECL™”; and measuring the expression intensity by using “IMAGE MASTER™”, commercialized by Amersham Biosciences, Tokyo, Japan.

[2] = system: OPG production in MG-63 cells, ATCC CRL 1427; test: Screening for control of the production of OPG in MG-63 cells; type: cell-based, human; conditions: saccharide solutions Nos. 1 to 7, 2-day culture
ddy mice = conditions: 15 g/kg body weight, by syringe or intubationally with stomach sonde, observed seven days
Description: Either of the sterilized saccharide solutions was administered with a syringe or intubationally administered with a stomach sonde to five groups of ddy mice, having 20 to 25 g body weight, consisting of five heads in each group. The mice were observed their conditions for seven days.

OPG = test: Administration test in healthy volunteers, blood OPG by ELISA; type: in vivo, human; conditions: for production level of OPG in blood: 100 ml of 10% (w/v) solution orally after fasting, blood at six hours, ELISA
Description: Eighteen healthy volunteers, aged 35 to 50-years-old, were divided into three groups A, B, and C, consisting of three males and three females in each group. […] As a control solution, 1,000 ml of deionized water were sterilized with a membrane filter. These test and control solutions were stored at about 10° C. in a refrigerator until initiating the test. The volunteers in the groups A to C were allowed to fast, except for water, from 10 p.m. at night just before initiating the test, and 100 ml aliquots of the test solution 1, the test solution 2, and the control solution were administered to the groups A, B, and C, respectively, at 6 a.m. on the next day. Thereafter, all the volunteers were allowed to stay indoors calmly and sampled their blood at six hours after the administrations. The sampled bloods were centrifuged at […] for 10 min and quantified for OPG with “RS000805”, a product code number for ELISA system for assaying OPG commercialized by Funakoshi Co., Ltd., Tokyo. Japan.

Q: What does the source list for OC[C@H]1O[C@H](O[C@H]2[C@H](O)[C@@H](O)C(O)O[C@@H]2CO)[C@H](O)[C@@H](O)[C@@H]1O (mixture of isomers) [maltose]?
A: expression intensity of OPG versus control cell culture system [1]: lower than that for the control cell culture system; production of OPG compared with a control culture system free of saccharide [2]: remarkably inhibited the production of OPG

Q: What does the source list for O=C[C@H](O)[C@@H](O)[C@H](O)[C@H](O)CO [D-glucose]?
A: mortality (ddy mice): no mouse died; expression intensity of OPG versus control cell culture system [1]: lower than that for the control cell culture system; production level of OPG in blood (OPG; healthy volunteers): significantly lower production level of OPG than that of the group C with the control solution; complaints of abnormality after administration (OPG; human, in vivo, po): no volunteer; production of OPG compared with a control culture system free of saccharide [2]: remarkably inhibited the production of OPG

Q: Which results are given for OC[C@H]1O[C@@](CO)(O[C@H]2O[C@H](CO)[C@@H](O)[C@H](O)[C@H]2O)[C@@H](O)[C@@H]1O [sucrose]?
A: mortality (ddy mice): no mouse died; expression intensity of OPG versus control cell culture system [1]: lower than that for the control cell culture system; production of OPG compared with a control culture system free of saccharide [2]: remarkably inhibited the production of OPG

Q: Which results are given for OC[C@H]1O[C@H](O[C@H]2O[C@H](CO)[C@@H](O)[C@H](O)[C@H]2O)[C@H](O)[C@@H](O)[C@@H]1O [α,α-trehalose]?
A: mortality (ddy mice): no mouse died; expression intensity of OPG versus control cell culture system [1]: higher than that for the control cell culture system; complaints of abnormality after administration (OPG; healthy volunteers, 100 ml of 10% (w/v) solution orally): no volunteer; production level of OPG in blood (OPG; healthy volunteers): significantly higher than those with the test solution 2 and the control solution; production of OPG compared with a control culture system free of saccharide [2]: distinctly enhanced the production of OPG
